From US20220282271A1, “HERBICIDE RESISTANT PLANTS AND METHODS OF MAKING AND USING” (OFFICE OF INNOVATION ADVANCEMENT AND COMMERCIALIZATION, priority 2019, published 2022)
pIC50: −log10 of the molar value.

How the values were obtained:
[1] = biological target: T1, recombinant wild-type E. indica PPO1 (Eleusine indica, UniProt A0A6G5XNV7); assay: In vitro PPO enzyme activity inhibition, wild-type PPO1; type: biochemical
T1 sequence (A0A6G5XNV7 1-529): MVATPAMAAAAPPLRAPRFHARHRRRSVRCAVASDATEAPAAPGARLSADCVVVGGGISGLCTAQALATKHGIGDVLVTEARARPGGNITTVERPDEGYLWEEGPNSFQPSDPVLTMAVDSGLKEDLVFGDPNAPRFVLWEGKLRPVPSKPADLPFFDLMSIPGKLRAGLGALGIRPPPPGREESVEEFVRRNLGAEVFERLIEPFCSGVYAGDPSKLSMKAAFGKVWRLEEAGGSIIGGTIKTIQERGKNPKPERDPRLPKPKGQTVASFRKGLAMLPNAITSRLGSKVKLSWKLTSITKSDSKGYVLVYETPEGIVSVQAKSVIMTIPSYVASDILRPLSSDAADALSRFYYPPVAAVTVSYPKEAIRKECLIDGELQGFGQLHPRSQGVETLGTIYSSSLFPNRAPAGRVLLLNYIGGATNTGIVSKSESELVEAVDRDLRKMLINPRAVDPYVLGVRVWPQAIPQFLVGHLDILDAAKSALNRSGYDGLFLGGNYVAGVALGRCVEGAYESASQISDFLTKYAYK
Source text: Effects of A212T substitution were studied using the E. indica backbone. The wild-type E. indica PPO1 and the E. indica PPO1 A212T variants were synthesized de novo and subcloned into pRSetB plasmid (Invitrogen, Carlsbad, Calif.). The complete description of expression and purification of E. indica PPO1 and E. indica PPO1 A212T variant proteins were referenced to the method described for PPO2 by Rangani et al. (2019, Frontiers in Plant Sci., 10:568). […] Oxadiazon, sulfentrazone, saflufenacil and lactofen are from the class of oxadiazole, triazolinone, pyrimidinedione, and diphenyl ether, respectively. Flumioxazin and trifludimoxazin are from the same chemical family, N-phenylphthalimide. […] The assay was replicated twice.

[2] = biological target: recombinant variant E. indica PPO1 A212T (Eleusine indica, UniProt A0A6G5XNV7, A212T); assay: In vitro PPO enzyme activity inhibition, variant PPO1 A212T; type: biochemical
Chain of recombinant variant E. indica PPO1 A212T (A0A6G5XNV7 entry or part of it A212T): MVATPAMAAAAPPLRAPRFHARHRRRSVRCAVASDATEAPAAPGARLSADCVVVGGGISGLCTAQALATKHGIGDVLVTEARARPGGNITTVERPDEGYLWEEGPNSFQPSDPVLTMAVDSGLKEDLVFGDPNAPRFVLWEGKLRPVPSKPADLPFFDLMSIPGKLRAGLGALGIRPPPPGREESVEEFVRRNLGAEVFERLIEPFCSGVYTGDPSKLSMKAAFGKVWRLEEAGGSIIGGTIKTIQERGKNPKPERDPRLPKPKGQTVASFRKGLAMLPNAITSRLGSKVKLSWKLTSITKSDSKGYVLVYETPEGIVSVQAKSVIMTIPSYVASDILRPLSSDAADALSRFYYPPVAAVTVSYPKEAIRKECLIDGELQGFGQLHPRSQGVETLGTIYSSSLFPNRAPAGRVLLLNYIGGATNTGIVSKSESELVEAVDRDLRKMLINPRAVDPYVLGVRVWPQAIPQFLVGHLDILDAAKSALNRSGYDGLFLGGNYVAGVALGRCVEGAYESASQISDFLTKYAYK
Source text: Effects of A212T substitution were studied using the E. indica backbone. The wild-type E. indica PPO1 and the E. indica PPO1 A212T variants were synthesized de novo and subcloned into pRSetB plasmid (Invitrogen, Carlsbad, Calif.). The complete description of expression and purification of E. indica PPO1 and E. indica PPO1 A212T variant proteins were referenced to the method described for PPO2 by Rangani et al. (2019, Frontiers in Plant Sci., 10:568). Six PPO inhibitors, belonging to five different chemical families, were evaluated on the PPO enzyme activity at a concentrations ranging from 5.00×10^−5M to 5.12×10^−12M. Oxadiazon, sulfentrazone, saflufenacil and lactofen are from the class of oxadiazole, triazolinone, pyrimidinedione, and diphenyl ether, respectively. Flumioxazin and trifludimoxazin are from the same chemical family, N-phenylphthalimide. […] The assay was replicated twice.

Albizia julibrissin = assay: Weed control screen: silktree; type: in vivo; conditions: 1.0 lb ai/a, applied approximately 3 weeks after emergence, relative to non-treated
Experimental: (§1) Herbicides were applied at a spray volume of 280 L/ha with no adjuvant added to any herbicide mixture. Weed control was rated on a 0 to 100 percent phytoxicity scale with 0 being no plant injury/phytotoxicity and 100 being complete plant dessication. Twenty-one weeds were evaluated for response to herbicides (Table 3). The weeds selected were a mixture of weeds common in agronomic and horticultural crops. Herbicide was applied to all species approximately 3 weeks after emergence. Plant phytotoxicity rated as percent control relative to the non-treated.

Crotalaria spectabilis = assay: Weed control screen: showy crotalaria; type: in vivo; conditions: 1.0 lb ai/a, applied approximately 3 weeks after emergence, relative to non-treated
Experimental: as §1

Sesbania exaltata = assay: Weed control screen: hemp sesbania; type: in vivo; conditions: 1.0 lb ai/a, applied approximately 3 weeks after emergence, relative to non-treated
Experimental: as §1

Physalis angulata = assay: Weed control screen: cutleaf groundcherry; type: in vivo; conditions: 1.0 lb ai/a, applied approximately 3 weeks after emergence, relative to non-treated
Experimental: as §1

Murdannia nudiflora = assay: Weed control screen: doveweed; type: in vivo; conditions: 1.0 lb ai/a, applied approximately 3 weeks after emergence, relative to non-treated
Experimental: as §1

Ipomoea lacunosa = assay: Weed control screen: pitted morningglory; type: in vivo; conditions: 1.0 lb ai/a, applied approximately 3 weeks after emergence, relative to non-treated
Experimental: as §1

Ipomoea coccinea = assay: Weed control screen: red morningglory; type: in vivo; conditions: 1.0 lb ai/a, applied approximately 3 weeks after emergence, relative to non-treated
Experimental: as §1

Ipomoea quamoclit = assay: Weed control screen: cypressvine morningglory; type: in vivo; conditions: 1.0 lb ai/a, applied approximately 3 weeks after emergence, relative to non-treated
Experimental: as §1

Ipomoea hederacea = assay: Weed control screen: entireleaf morningglory; type: in vivo; conditions: 1.0 lb ai/a, applied approximately 3 weeks after emergence, relative to non-treated
Experimental: as §1

Jaquemontia tamnifolia = assay: Weed control screen: smallflower morningglory; type: in vivo; conditions: 1.0 lb ai/a, applied approximately 3 weeks after emergence, relative to non-treated
Experimental: as §1

Conyza candensis = assay: Weed control screen: glyphosate-resistant horseweed; type: in vivo; conditions: 1.0 lb ai/a, applied approximately 3 weeks after emergence, relative to non-treated
Experimental: as §1

Solanum carolinense = assay: Weed control screen: Carolina horsenettle; type: in vivo; conditions: 1.0 lb ai/a, applied approximately 3 weeks after emergence, relative to non-treated
Experimental: as §1

Kyllinga squamulata = assay: Weed control screen: cock's comb kyllinga; type: in vivo; conditions: 1.0 lb ai/a, applied approximately 3 weeks after emergence, relative to non-treated
Experimental: as §1

Sorghum halapense = assay: Weed control screen: johnsongrass; type: in vivo; conditions: 1.0 lb ai/a, applied approximately 3 weeks after emergence, relative to non-treated
Experimental: as §1

Abutilon theophrasti = assay: Weed control screen: velvetleaf; type: in vivo; conditions: 1.0 lb ai/a, applied approximately 3 weeks after emergence, relative to non-treated
Experimental: as §1

Amaranthus hybridus = assay: Weed control screen: smooth pigweed; type: in vivo; conditions: 1.0 lb ai/a, applied approximately 3 weeks after emergence, relative to non-treated
Experimental: as §1

Amaranthus palmeri = assay: Weed control screen: glyphosate resistant palmer amaranth; type: in vivo; conditions: 1.0 lb ai/a, applied approximately 3 weeks after emergence, relative to non-treated
Experimental: as §1

[3] = highest herbicide concentration 10^−5 M

SMILES: CC(C)Oc1cc(-n2nc(C(C)(C)C)oc2=O)c(Cl)cc1Cl [Oxadiazon, oxadiazon]
- pIC50 [1]: 7.61
- Wild-type E. indica PPO1 % inhibition [1, 3]: >90%
- inhibition at 10 µM [1, 3]: > 90%
- pIC50 [2]: < 5.00
- inhibition at 10 µM ([2]; read-out: Variant E. indica PPO1 A212T % inhibition): 16%
- Percent control (0 to 100) (Albizia julibrissin): 50%
- Percent control (0 to 100) (Crotalaria spectabilis): 99%
- Percent control (0 to 100) (Sesbania exaltata): 100%
- Percent control (0 to 100) (Physalis angulata): 70%
- Percent control (0 to 100) (Murdannia nudiflora): 0%
- Percent control (0 to 100) (Ipomoea lacunosa): 100%
- Percent control (0 to 100) (Ipomoea coccinea): 100%
- Percent control (0 to 100) (Ipomoea quamoclit): 100%
- Percent control (0 to 100) (Ipomoea hederacea): 100%
- Percent control (0 to 100) (Jaquemontia tamnifolia): 90%
- Percent control (0 to 100) (Conyza candensis): 30%
- Percent control (0 to 100) (Solanum carolinense): 60%
- Percent control (0 to 100) (Kyllinga squamulata): 75%
- Percent control (0 to 100) (Sorghum halapense): 100%
- Percent control (0 to 100) (Abutilon theophrasti): 100%
- Percent control (0 to 100) (Amaranthus hybridus): 100%
- Percent control (0 to 100) (Amaranthus palmeri): 75%
